Measured values: patent publication US4324728A, “Compound nanaomycin A and derivatives thereof and a process for producing the same” (The Kitasato Institute, priority 1976, dated 1982)
Converted amounts (≈) assume the structure as drawn.

How the values were obtained:
fungi = test: Antifungal activity (in words); type: cell-based
Trichophyton violaceum = test: Minimal inhibitory concentration (agar); type: cell-based; settings: Trichophyton violaceum, 96 h, pH 6.4, potato agar, pH 6.4, 4 days, 27° C.; read-out: MIC
[1] = test system: parasite of the genus Tricophyton; test: Therapeutic effect on infectious diseases in guinea pigs and cattle; type: in vivo; settings: concentration 0.01-1%
Protocol: (§1) When dermatomycosis of cattle caused by mass infection of Trichophyton verrucosum is treated with nanaomycin A, nanaomycin A is dissolved or suspended in a suitable carrier, for example, olive oil, and is coated on the affected part directly with or without removal of the scales. […] The results obtained by once-coating of nanaomycin A and by twice-coating (the second coating is carried out a week after the first coating) are shown in Tables 2 and 3, respectively.

Acute toxicity in mice = settings: intra-penetrial injection
Mycoplasma gallisepticum = test: Therapeutic effect on chronic respiratory disease of chickens; type: in vivo
Trichophyton verrucosum = test: Treatment of dermatomycosis of cattle; type: in vivo; design: key: +++: complete removal of scales and; ++: a little scales remained; +: removal of a part of scales; -: no removal of scale and no recovery
Protocol: as §1, with “respectively. | I : direct coating on affected part | II : coating after removing the scales of affected | Con. : concentration of agent” for “respectively.”

Aspergillus niger = test: Minimal inhibitory concentration (agar); type: cell-based; settings: Aspergillus niger, 96 h; potato agar, pH 6.4, 4 days, 27° C.; read-out: MIC
Protocol: (§2) Minimal inhibitory concentration was assayed by agar dilution method
(§3) (potato agar, pH 6.4, 27° C., 4 days).
(§4) P potato agar (pH 6.4, 4 days, 27° C.)

[2] = test system: Aspergillus fumigatus IAM 2612; test: Minimal inhibitory concentration (agar); type: cell-based; settings: IAM2612, 96 h, potato agar, pH 6.4, 4 days, 27° C.
Protocol: as §4
(§5) MIC Minimal inhibitory concentration

Microsporum gypseum = test: Minimal inhibitory concentration (agar dilution method); type: cell-based; settings: Nannizzia gypsea, 96 h; potato agar, pH 6.4, 27° C., 4 days; read-out: Minimal Inhibitory Con.
Protocol: as §2, §3

Aspergillus fumigatus = test: as above; type: cell-based; settings: Aspergillus fumigatus, 96 h; potato agar, pH 6.4, 27° C., 4 days; read-out: Minimal Inhibitory Con.
Protocol: as §2, §3

Escherichia coli NIHJ = test: Minimal inhibitory concentration (agar); type: cell-based; settings: 48 h, nutrient agar, pH 7.0, 2 days, 37° C.
Mycobacterium smegmatis = test: Minimal inhibitory concentration (agar); type: cell-based; settings: Mycolicibacterium smegmatis, 48 h; nutrient agar, pH 7.0, 2 days, 37° C.
Protocol: (§6) Medium N nutrient agar (pH 7.0, 2 days, 37° C.)
as §5

Staphylococcus aureus = test: Growth inhibition (text summary of Table 1); type: cell-based; settings: 48 h, read-out: concentration at which growth is inhibited
Protocol: as §6

[3] = test system: Tricophyton metagorphytes; test: Treatment of dermatomycosis at the back of guinea pigs; type: in vivo; settings: 0.01-1% solution in propyleneglycol-ethanol (3:1 v/v), once daily for 8 days
[4] = test system: Klebsiella pneumoniae PCI 602; test: Minimal inhibitory concentration (agar); type: cell-based; settings: PCI602, 48 h, nutrient agar, pH 7.0, 2 days, 37° C.
[5] = once-coating, I direct coating, 0.1 mg/ml
[6] = once-coating, I direct coating, 1 mg/ml
[7] = once-coating, I direct coating, 10 mg/ml
[8] = once-coating, II after removing scales, 0.1 mg/ml
[9] = once-coating, II after removing scales, 1 mg/ml
[10] = once-coating, II after removing scales, 10 mg/ml
[11] = twice-coating, I direct coating, 0.1 mg/ml
[12] = twice-coating, I direct coating, 1 mg/ml
[13] = twice-coating, I direct coating, 10 mg/ml
[14] = twice-coating, II after removing scales, 0.1 mg/ml
[15] = twice-coating, II after removing scales, 1 mg/ml
[16] = twice-coating, II after removing scales, 10 mg/ml

## CC(=O)Oc1cccc2c1C(=O)C1=C(CC(CC(=O)O)OC1C)C2=O (centres unmarked) [Acetylnanaomycin A, acetylnanaomycin A]
fungi
  activity against fungi: as strong activity against fungi and mycoplasmas as nanaomycin A
Trichophyton violaceum
  MIC: 0.8 µg/mL (≈ 2.32 µM)
[1]
  therapeutic effect on Trichophyton infectious diseases: superior therapeutic effect to nanaomycin A
Acute toxicity in mice
  acute toxicity compared with nanaomycin A: lower than that of nanaomycin A

## CC1OC(CC(=O)O)CC2=C1C(=O)c1c(O)cccc1C2=O (centres unmarked) [Nanaomycin A, nanaomycin A]
Mycoplasma gallisepticum
  therapeutic effect on chronic respiratory disease: exhibits therapeutic effect
Trichophyton verrucosum; [5]
  Result after 1 week: ++
  Result after 2 weeks: ++
  Result after 3 weeks: +++
  Result after 4 weeks: +++
Trichophyton verrucosum; [6]
  Result after 1 week: +++
  Result after 2 weeks: +++
  Result after 3 weeks: +++
  Result after 4 weeks: +++
Trichophyton verrucosum; [7]
  Result after 1 week: +++
  Result after 2 weeks: +++
  Result after 3 weeks: +++
  Result after 4 weeks: +++
Trichophyton verrucosum; [8]
  Result after 1 week: +++
  Result after 2 weeks: +++
  Result after 3 weeks: +++
  Result after 4 weeks: +++
Trichophyton verrucosum; [9]
  Result after 1 week: +++
  Result after 2 weeks: +++
  Result after 3 weeks: +++
  Result after 4 weeks: +++
Trichophyton verrucosum; [10]
  Result after 1 week: +++
  Result after 2 weeks: +++
  Result after 3 weeks: +++
  Result after 4 weeks: +++
Trichophyton verrucosum; [11]
  Result after 1 week: ++
  Result after 2 weeks: +++
  Result after 3 weeks: +++
  Result after 4 weeks: +++
Trichophyton verrucosum; [12]
  Result after 1 week: ++
  Result after 2 weeks: ++
  Result after 3 weeks: +++
  Result after 4 weeks: +++
Trichophyton verrucosum; [13]
  Result after 1 week: +++
  Result after 2 weeks: +++
  Result after 3 weeks: +++
  Result after 4 weeks: +++
Trichophyton verrucosum; [14]
  Result after 1 week: +++
  Result after 2 weeks: +++
  Result after 3 weeks: +++
  Result after 4 weeks: +++
Trichophyton verrucosum; [15]
  Result after 1 week: +++
  Result after 2 weeks: +++
  Result after 3 weeks: +++
  Result after 4 weeks: +++
Trichophyton verrucosum; [16]
  Result after 1 week: +++
  Result after 2 weeks: +++
  Result after 3 weeks: +++
  Result after 4 weeks: +++
Aspergillus niger
  MIC: 25 µg/mL (≈ 82.7 µM)
[2]
  MIC: 12.5 µg/mL (≈ 41.4 µM)
Microsporum gypseum
  MIC: 0.8 µg/mL (≈ 2.65 µM)
Aspergillus fumigatus
  MIC: 6.3 µg/mL (≈ 20.8 µM)
Escherichia coli NIHJ
  MIC: 31.3 µg/mL (≈ 104 µM)
Mycobacterium smegmatis
  MIC: 62.5 µg/mL (≈ 207 µM)
Staphylococcus aureus
  MIC: 2 to 8 µg/mL (≈ 6.62 to 26.5 µM)
[3]
  therapeutic effect on erythema and scales: excellent therapeutic effect
[4]
  MIC: 31.3 µg/mL (≈ 104 µM)
